In this assay the test system is WEEV replicon. Kind of assay: microbe, parasite or virus in culture. It counts as cell-based, Western equine encephalitis virus. As to conditions: Western equine encephalitis virus; for activity at 2 µM: read-out: Activity (% control LUC) 2 μM; for activity at 10 µM: read-out: Activity (% control LUC) 10 μM.
Setting [1] is: read-out: Activity (% control LUC) 50 μM.
[2] abbreviates: read-out: 50 μM (% control) Luc.

Where two headings read alike, the source gives them in different places.

For 27 compounds, IC50 and activity results are on record in patent US8846684B2 (priority 2011, dated 2014).

As a reminder, the IC50 is the midpoint of a concentration-inhibition curve. With `O=C(c1cc2ccccc2n1Cc1ccc(Cl)cc1)N1CCC(C(=O)N2CCCC2)CC1` [CCG 102514, (1-(4-chlorobenzyl)-1H-indol-2-yl)(4-(pyrrolidine-1-carbonyl)piperidin-1-yl)methanone], the activity at 2 µM was determined as 83.1% and the activity at 10 µM was 66.4%. Also, where the note is “read-out: Activity IC50 (μM)”, the half-inhibitory concentration (IC50) came to 23.8 µM. Also, under setting [1], the activity at 50 µM worked out at 10.5%.
For `Cc1ccc(CCNC(=O)C2CCN(C(=O)c3cc4ccccc4n3Cc3ccc(Cl)cc3)CC2)cc1` [CCG 102518, 1-(1-(4-chlorobenzyl)-1H-indole-2-carbonyl)-N-(4-methylphenethyl)piperidine-4-carboxamide], the activity at 2 µM stood at 83% and the activity at 10 µM was 33.8%. Further, the half-maximal inhibitory concentration (IC50) (read-out: Activity IC50 (μM)) amounted to 4.2 µM. Moreover, the activity at 50 µM under setting [1] is 32.2%.
The matching figures for `O=C(NCc1ccccc1)C1CCN(C(=O)c2cc3ccccc3n2Cc2ccc(F)cc2)CC1` [CCG 203880, N-benzyl-1-(1-(4-fluorobenzyl)-1H-indole-2-carbonyl)piperidine-4-carboxamide]: 134%, 121%, 25 µM and 67%.
For the compound `O=C(c1cc2ccccc2n1Cc1ccc(Cl)cc1)N1CCC(C(=O)N2CCCCC2)CC1` [CCG 203928, (1-(4-chlorobenzyl)-1H-indol-2-yl)(4-(piperidine-1-carbonyl)piperidin-1-yl)methanone], the activity at 2 µM was determined as 95.1% and the activity at 10 µM worked out at 65.4%. The IC50 (read-out: Activity IC50 (μM)) is 8.1 µM. The activity at 50 µM under setting [1] amounted to 3.4%.
Consider `O=C(NCc1ccncc1)C1CCN(C(=O)c2cc3ccccc3n2Cc2ccc(Cl)cc2)CC1` [CCG 203929, 1-(1-(4-chlorobenzyl)-1H-indole-2-carbonyl)-N-(pyridin-4-ylmethyl)piperidine-4-carboxamide], for which the activity at 2 µM was 99.5% and the activity at 10 µM amounted to 51.8%. The half-inhibitory concentration (IC50) (read-out: Activity IC50 (μM)) was found to be 6.6 µM. Under setting [1], the activity at 50 µM came out at 36.4%.
As to `CN(Cc1ccccc1)C(=O)C1CCN(C(=O)c2cc3ccccc3n2Cc2ccc(Cl)cc2)CC1` [CCG 203930, N-benzyl-1-(1-(4-chlorobenzyl)-1H-indole-2-carbonyl)-N-methylpiperidine-4-carboxamide], the activity at 2 µM turned out to be 110% and the activity at 10 µM was determined as 59.5%. Further, the IC50 (read-out: Activity IC50 (μM)) turned out to be 18.6 µM. For the same compound, the activity at 50 µM under setting [1] is 38%.
For `O=C(c1cc2ccccc2n1Cc1ccc(F)cc1)N1CCN(Cc2ccccc2)CC1` [CCG 203942, (4-benzylpiperazin-1-yl)(1-(4-fluorobenzyl)-1H-indol-2-yl)methanone] the same measures were 116%, 73.8%, 12.8 µM and 48.9%.
As to `O=C(c1cc2ccccc2n1Cc1ccc(F)cc1)N1CCC(C(=O)N2CCCCC2)CC1` [CCG 203945, (1-(4-fluorobenzyl)-1H-indol-2-yl)(4-(piperidine-1-carbonyl)piperidin-1-yl)methanone], the activity at 2 µM amounted to 85% and the activity at 10 µM stood at 64.4%. Further, the IC50 (read-out: Activity IC50 (μM)) was 20 µM. The activity at 50 µM under setting [1] came to 21.3%.
In the case of `O=C(c1cc2ccccc2n1Cc1ccc(Cl)cc1)N1CCC(C(=O)N2CCC[C@H]2CO)CC1` [CCG 204021, (S)-(1-(4-chlorobenzyl)-1H-indol-2-yl)(4-(2-(hydroxymethyl)pyrrolidine-1-carbonyl)piperidin-1-yl)methanone], the activity at 2 µM was 87.8% and the activity at 10 µM was 77.9%. Moreover, the IC50 (read-out: Activity IC50 (μM)) was 32.1 µM. Besides, the activity at 50 µM under setting [1] worked out at 21.1%.
As to `CN(C)C(=O)C1CCN(C(=O)c2cc3ccccc3n2Cc2ccc(Cl)cc2)CC1` [CCG 204022, 1-(1-(4-chlorobenzyl)-1H-indole-2-carbonyl)-N,N-dimethylpiperidine-4-carboxamide], the activity at 2 µM turned out to be 87.3% and the activity at 10 µM was determined as 51.9%. The IC50 (read-out: Activity IC50 (μM)) stood at 10.4 µM. Besides, under setting [1], the activity at 50 µM came out at 5.8%.
For `CN1CCN(C(=O)C2CCN(C(=O)c3cc4ccccc4n3Cc3ccc(Cl)cc3)CC2)CC1` [CCG 204023, (1-(4-chlorobenzyl)-1H-indol-2-yl)(4-(4-methylpiperazine-1-carbonyl)piperidin-1-yl)methanone] the same measures were 99%, 67.4%, 21.4 µM and 6%.
For the compound `O=C(c1cc2ccccc2n1Cc1ccc(Cl)cc1)N1CCC(C(=O)N2CCOCC2)CC1` [CCG 204024, (1-(4-chlorobenzyl)-1H-indol-2-yl)(4-(morpholine-4-carbonyl)piperidin-1-yl)methanone], the activity at 2 µM is 74.9% and the activity at 10 µM was 47.4%. Further, the IC50 (read-out: Activity IC50 (μM)) was found to be 12.3 µM. The activity at 50 µM under setting [1] worked out at 8.3%.
As to `Cc1cccc(CNC(=O)C2CCN(C(=O)c3cc4ccccc4n3Cc3ccc(Cl)cc3)CC2)c1` [CCG 204042, 1-(1-(4-chlorobenzyl)-1H-indole-2-carbonyl)-N-(3-methylbenzyl)piperidine-4-carboxamide], the activity at 2 µM worked out at 93.7% and the activity at 10 µM was determined as 59.5%. For the setting “read-out: Activity IC50 (μM)”, the 50% inhibitory concentration (IC50) came to 9.8 µM. Besides, the activity at 50 µM under setting [1] turned out to be 64.4%.
The matching figures for `O=C(NCc1cccc(Cl)c1)C1CCN(C(=O)c2cc3ccccc3n2Cc2ccc(Cl)cc2)CC1` [CCG 204043, N-(3-chlorobenzyl)-1-(1-(4-chlorobenzyl)-1H-indole-2-carbonyl)piperidine-4-carboxamide]: 78.6%, 60.9%, 28.5 µM and 53.6%.
For `O=C(NCc1ccccc1)C1CCN(C(=O)c2cccn2Cc2ccc(Cl)cc2)CC1` [CCG 204054, N-benzyl-1-(1-(4-chlorobenzyl)-1H-pyrrole-2-carbonyl)piperidine-4-carboxamide] the same measures were 110%, 108%, 54.6 µM and 74.5%.
For `O=C(c1cc2ccccc2n1Cc1ccc(F)cc1)N1CCC(CN2CCCCC2)CC1` [CCG 204055, (1-(4-fluorobenzyl)-1H-indol-2-yl)(4-(piperidin-1-ylmethyl)piperidin-1-yl)methanone] the same measures were 89.7%, 69.9%, 13.3 µM and 40%.
Regarding `O=C(c1cc2ccccc2n1Cc1ccc(F)cc1)N1CCC(C(O)c2ccccc2)CC1` (stereo not shown) [CCG 204056, (1-(4-fluorobenzyl)-1H-indol-2-yl)(4-(hydroxy(phenyl)methyl)piperidin-1-yl)methanone], the activity at 2 µM was 99.3% and the activity at 10 µM was 71.7%. In addition, the IC50 (read-out: Activity IC50 (μM)) is 16 µM. For the same compound, under setting [1], the activity at 50 µM worked out at 8.3%.
Take `COC(=O)c1cccc(NC(=O)C2CCN(C(=O)c3cc4ccccc4n3Cc3ccc(Cl)cc3)CC2)c1` [CCG 204057, Methyl 3-(1-(1-(4-chlorobenzyl)-1H-indole-2-carbonyl)piperidine-4-carboxamido)benzoate]: the activity at 2 µM was found to be 87.9% and the activity at 10 µM stood at 54%. Under “read-out: Activity IC50 (μM)”, the IC50 was found to be 35.6 µM. Moreover, the activity at 50 µM under setting [1] was 50.9%.
On to `CN(Cc1ccccc1)C(=O)C1CCN(C(=O)c2cc3ccccc3[nH]2)CC1` [CCG 205400, N-benzyl-1-(1H-indole-2-carbonyl)-N-methylpiperidine-4-carboxamide], for which half-maximal inhibition (IC50) was put at 27.7 µM. The activity at 50 µM under setting [2] is 29.1%.
`CN(Cc1ccccc1)C(=O)C1CCN(C(=O)c2cc3ccccc3n2Cc2ccccc2)CC1` [CCG 205404, N-benzyl-1-(1-benzyl-1H-indole-2-carbonyl)-N-methylpiperidine-4-carboxamide] had a half-maximal inhibitory concentration (IC50) of 16.9 µM. The activity at 50 µM under setting [2] stood at 20.5%.
For `O=C(NCc1cccnc1)C1CCN(C(=O)c2cc3ccccc3n2Cc2ccc(Cl)cc2)CC1` [CCG 205422, 1-(1-(4-chlorobenzyl)-1H-indole-2-carbonyl)-N-(pyridin-3-ylmethyl)piperidine-4-carboxamide] the same measures were 11.4 µM and 7.05%.
Regarding `CN(Cc1ccccc1)C(=O)C1CCN(C(=O)c2cc3ccccc3n2C)CC1` [CCG 205428, N-benzyl-N-methyl-1-(1-methyl-1H-indole-2-carbonyl)piperidine-4-carboxamide], the activity at 50 µM under setting [2] is 77.2%.
Still for that read-out and setting: to `CN1CCC(CNC(=O)C2CCN(C(=O)c3cc4ccccc4n3Cc3ccc(Cl)cc3)CC2)CC1` [CCG 205429, 1-(1-(4-chlorobenzyl)-1H-indole-2-carbonyl)-N-((1-methylpiperidin-4-yl)methyl)piperidine-4-carboxamide] belongs 26.8%.
`O=C(c1cc2ccccc2n1Cc1ccc(Cl)cc1)N1CCC(C(=O)N2CCN(Cc3cccnc3)CC2)CC1` [CCG 205430, (1-(4-chlorobenzyl)-1H-indol-2-yl)(4-(4-(pyridin-3-ylmethyl)piperazine-1-carbonyl)piperidin-1-yl)methanone] displayed a half-maximal inhibitory concentration (IC50) of 13.1 µM. In addition, under setting [2], the activity at 50 µM stood at 3.55%.
The matching figures for `Cc1c(C(=O)N2CCC(C(=O)NCc3ccccc3)CC2)n(Cc2ccc(Cl)cc2)c2ccccc12` [CCG 205431, N-benzyl-1-(1-(4-chlorobenzyl)-3-methyl-1H-indole-2-carbonyl)piperidine-4-carboxamide]: more than 100 µM and 48.4%.
The matching figures for `O=C(NCCc1ccncc1)C1CCN(C(=O)c2cc3ccccc3n2Cc2ccc(Cl)cc2)CC1` [CCG 205432, 1-(1-(4-chlorobenzyl)-1H-indole-2-carbonyl)-N-(2-(pyridin-4-yl)ethyl)piperidine-4-carboxamide]: 0.53 µM and 3.75%.
For `O=C(NCCc1cccnc1)C1CCN(C(=O)c2cc3ccccc3n2Cc2ccc(Cl)cc2)CC1` [CCG 205433, 1-(1-(4-chlorobenzyl)-1H-indole-2-carbonyl)-N-(2-(pyridin-3-yl)ethyl)piperidine-4-carboxamide] the same measures were 5.34 µM and 1.9%.
